Data as given in US20060189546A1, “Compounds for treating autoimmune and demyelinating diseases” (priority 2005, published 2006).

Key:
[1] = human, body surface area, as free base; cited from earlier work
HT29 cell line = test: GI50 concentration in HT29 cells; type: cell-based; settings: Homo sapiens, HT-29
T-lymphocyte cells = test: Cell Proliferation, T-Cell + Con A ([3H]thymidine incorporation); type: cell-based, balb/c mice; settings: Mus musculus
Protocol: T-lymphocyte cells isolated from thymus of balb/c mice weighing 17±1 g were used. Test compound and/or vehicle is incubated with the cells (4×10^6/ml) in the presence of 3 μg/mL Concanavalin A (Con A) in AIM-V medium pH 7.4 at 37° C. for 24 hours. [^3H]Thymidine (120 nM) was then added for an additional overnight incubation period. Thymidine incorporation was assessed by liquid scintillation counting.
Test compound-induced suppression of cell proliferation by 50 percent or more (≧50%) relative to vehicle control response indicates significant inhibitory activity.

[2] = test system: Collagen Antibody Induced Arthritis; test: Collagen monoclonal antibody (mABs) + LPS induced arthritis, hind paw volume; type: in vivo, BALB/c strain mice; settings: for increase in hind paw volume: oral once daily for 3 days, 30 mg/kg
Protocol: Groups of 3 BALB/c strain mice, 6-7 weeks of age, were used for the induction of arthritis by monoclonal antibodies (mABs) raised against type II collagen, plus lipopolysaccharide (LPS). A combination of 4 different mABs (D8, F10, DI-2G and A2) totaling 4 mg/mouse was administered to the animal intravenously on day 0, followed by intravenous challenge with […] of LPS 72 hours later (day 3). From day 3, test substance and vehicle were each administered orally once daily for 3 consecutive days. For each animal, volumes of both hind paws were measured using a plethysmometer with water cell (12 mm diameter) on Days 0, 5, 7, 10, 14 and 17. Percent inhibition of increase in volume induced by mABs+LPS was calculated by the following formula: Inhibition (%): [1−(Tn−T0)/(Cn−C0)]×100% Where: […]
C0(Cn): volume of day 0 (day n) in vehicle control
T0(Tn): volume of day 0 (day n) in test compound-treated group
Reduction of edema in the hind paws by 30% or more is considered significant.

[3] = test system: Experimental Autoimmune Encephalomyelitis (EAE); test: Chronic-progressive EAE, weekly treatment for 4 weeks (Example 2); type: in vivo, Hartley guinea pigs
Protocol: In the present experiment, female juvenile Hartley guinea pigs (225 g) were immunized with homogenized whole CNS (in saline) with an equal amount of complete Freund's Adjuvant and 10 mg added killed M. tuberculosis. The animals (>95%) show clinical signs starting on day 7 post immunization. An acute event of varying severity occurs between day 7 and day 20 followed by a continuous accumulation of clinical abnormality with hind limb paralysis, fecal impaction and incontinence. […] These clinical features indicate inflammation-induced lumbar spinal cord demyelination.
In these experiments, the immunized animals were nursed until day 40 or day 52 and then treated with 8 mg/kg and 16 mg/kg Symadex™ (intra cardiac), or 20 mg/kg and 40 mg/kg Symadex™ (i.p.) once a week for 4 weeks. Controls were given vehicle. Clinical signs were scored daily and the weights recorded. At the completion of the treatment period, the brain and spinal cord were dissected, formalin fixed and blocked for routine pathological examination of meningeal inflammation, perivascular infiltration (cuffing), parenchymal myelitis and demyelination by a blinded observer using hematoxylin-eosin and solochrome R cyanin stained sections.
Untreated, chronic EAE animals (n=5) were sacrificed on day 40, as well as non-EAE controls (n=5). Following each 10-day treatment interval, five animals from each group were sacrificed (0.25 ml sodium pentobarbital), blood samples were collected for FACS analysis (see below), and the brain and spinal cord dissected and sectioned. Three spinal sections were used, corresponding to lumbar, thoracic and cervical regions of the cord. The brain was cut into five transverse sections; the first three proximal sections were combined in one block, and the last two distal sections in another. Tissues were fixed in 10% formalin and embedded in paraffin. Five micrometer sections were stained with hematoxylin-eosin (H-E) or solochrome-R-cyanin (SCR) and evaluated by a blinded observer in each of the four categories: meningeal inflammation, perivascular infiltration, encephalitis or myelitis and demyelination (Table 2). The combined pathological score represents the total score (out of a potential 20) from all five CNS sections in each animal.
To quantify the abnormalities observed in the spinal cord, sections stained with H-E were divided into 12 representative pie-shaped areas. In each area, the number of cells within a 0.12-mm^2 field of view was counted using Sigma Scan Pro image analysis software (SPSS), and the combined mean number of cell in all 12 areas was calculated for the whole spinal cord (36 fields of view per animal). Note that as all cell nuclei were counted, the number of cells may include neurons and glial cells in addition to infiltrates.

[4] = test system: Experimental Autoimmune Encephalomyelitis (EAE); type: in vivo, guinea pig
Protocol: Following disease induction, as previously described, the animals were randomized into 5 five cohorts, one vehicle control and 4 treatment cohorts. Animals in the treatment cohorts were administered study drug intraperitoneally at 20 mg/kg (Symadex™dihydrochloride trihydrate) once a week for 4, 6 and 8 weeks, with an additional cohort treated once a week for 4 weeks and observed for an additional 4 weeks of treatment with vehicle solution (saline) rather than with drug.
The only significant protocol deviation from the method of Example 2 was that the pool of immunized animals was culled of animals presenting with a disease severity greater than 2 and randomized so that the mean disease severity of each cohort was matched in the severity score range of 1 to 1.5. This measure was invoked in order to avoid the chance circumstance, observed in Example 2, that animal selected for treatment should start treatment with a more severe presentation than the corresponding vehicle controls.

HCT116 cell line = test: GI50 concentration in HCT116 cells; type: cell-based; settings: Homo sapiens, HCT-116
[5] = CNS histopathology after treatment

For CCN(CC)CCNc1ccc2ncn3c4ccc(O)cc4c(=O)c1c23 [Symadex™, 5-[[(diethylamino)ethyl]amino]-8-hydroxyimidazo[4,5,1-de]-acridine-6-one], the “safe and well-tolerated single dose” value [1] is listed as 540 mg/m^2, the GI50 (HT29 cell line) is listed as 0.68 µM and the IC50 (T-lymphocyte cells; T-Cell + Con A) is listed as 0.014 µM. For the same molecule, the inhibition at 0.001 µM (T-lymphocyte cells; T-Cell + Con A, 1 nM, read-out: % Growth Inhibition) was 10%, the inhibition at 0.01 µM (T-lymphocyte cells; T-Cell + Con A, 10 nM, read-out: % Growth Inhibition) was 44% and the inhibition at 0.1 µM (T-lymphocyte cells; T-Cell + Con A, 0.1 μM, read-out: % Growth Inhibition) was 82%. For the same molecule, the inhibition at 1 µM (T-lymphocyte cells; read-out: % Growth Inhibition) was 103%, the inhibition at 10 µM (T-lymphocyte cells; read-out: % Growth Inhibition) was 104% and the “increase in hind paw volume” value ([2]; day 5, vehicle 42%) was 32%. For the same molecule, the “inhibition of increase in paw volume” value ([2]; day 10) was 61%, the “increase in hind paw volume” value ([2]; day 10, vehicle 75%) was 29% and the “inhibition of increase in paw volume” value ([2]; day 14) was 74%. For the same molecule, the “increase in hind paw volume” value ([2]; day 14, vehicle 70%) was 18%, the “inhibition of increase in paw volume” value ([2]; day 17) was 59% and the “increase in hind paw volume” value ([2]; day 17, vehicle 47%) was 19%. For the same molecule, the “time to clinical recovery from start of treatment” value ([3]; 40 mg/kg i.p. once a week) was no more than 2 weeks, the “clinical progress and pathological findings” value ([3]; 20 and 40 mg/kg i.p. once a week for 4 weeks) was “profound and substantial change in the clinical progress and pathological findings” and the “cells in existing lesions” value [3, 5] was “profound loss of cells”. For the same molecule, the “remyelination (myelin pallor)” value [3, 5] was “myelin pallor previously attributed to remyelination”, the “scores for meningeal inflammation and perivascular infiltration” value ([3]; treated groups vs vehicle controls, CNS histopathology) was “more severe in the treated groups than in vehicle controls” and the “clinical scores after drug withdrawal” value ([4]; 20 mg/kg i.p. once a week for 4 weeks, then 4 weeks vehicle) was “remained in stable disease at the time of discontinuation”. For the same molecule, the “mean clinical severity score” value ([4]; 20 mg/kg i.p. once a week, 4-week treatment cycle, starting mean 1.3) was 0.7, the mean severity score ([4]; 20 mg/kg i.p. once a week, 6 week treatment course, control 1.3) was 0.3 and the clinical scores ([4]; 20 mg/kg i.p., 8 consecutive weekly doses) was “converges on baseline at the end of the treatment course”. It also gave a GI50 (HCT116 cell line) of 0.21 µM.
